Results reported in US12023319B2, “Carboxylic acid aromatic amides” (priority 2016, dated 2024).
Several values for one entry are separate records, joined by “and”; a condition that tells them apart may be missing. Identical values can stand only once.

Columns and labels:
[1] = test system: female Sprague Daley rats; test: Cyclophosphamide-induced overactive bladder and cystitis (rats); format: in vivo, rat
From the text: 12. Cyclophosphamide-Induced Overactive Bladder and Cystitis (Rats)
The aim of this study was to test the efficacy of Compound Examples on overactive bladder as well as on interstitial cystitis and bladder pain syndrome in cyclophosphamide-treated rats.
The experimental setup is adapted to a previous described protocol (Lecci A et al, Br J Pharmacol 130: 331-38, 2000).
Strong presence and target induction of BDKRB1 in comparison to BDKRB2 has been verified by gene expression analysis in bladders removed from rats after cyclophosphamide (100 mg/kg and 150 mg/kg i.p.) induction in contrast to bladders of naïve, untreated rats. Immunohistochemistry confirmed the presence of BDKRB1 in bladders of rats after model induction, too.
Briefly, female Sprague Daley rats (˜200 g) were housed under normal conditions for laboratory rats in a 12:12-h light:dark cycle. Rats have been weighed, the tested Compound Examples were dissolved in relevant vehicle (e.g. DMSO/Water) (5/95) (v/v) and have been administrated by oral gavage in different concentrations one hour before application of cyclophosphamide (150 mg/kg) by i.p. injection. Additional 1.5 hours after cyclophosphamide administration each rat was transferred to a metabolic cage and voiding frequency has been recorded for the next 15 hours. Total amount of urine (ml) was collected via a plastic tube attached to the metabolic cages. The urine collecting tube was connected to a weight-sensitive sensor and a pressure transducer connected via an amplifier (ADIstruments) to the data acquisition software program (LabChart, ADInstruments) and a computer. […] At the end of the experiment rats have been weighed and killed under isoflurane anaesthesia and bladders have been removed and weighed. The bladders' wet weight was normalized to 100 g of body weight of each rat and analysis has been performed using GraphPad Prism 7 program.

[2] = test system: Male Sprague-Dawley rats; test: Rat STZ model for diabetic neuropathy (cold plate, warm plate, paw pressure, SNCV); format: in vivo; conditions: for Latency in Cold plate / Latency in Warm plate / Paw pressure: STZ rats; for Latency in Cold plate / Latency in Warm plate: Day 10, individual animals; for Paw pressure: Day 21, individual animals
Procedure: 7. Rat STZ Model for Diabetic Neuropathy (Diabetic Neuropathic Pain, Diabetes Induced Nerve Degeneration)
The streptozotocin (STZ) diabetic rat is the most extensively studied animal model of diabetic neuropathy. The animals develop rapidly allodynia and hyperalgesia.
Male Sprague-Dawley rats (˜200 g) were used. They were rendered diabetic by intravenous injection of streptozotocin (55 mg/kg; day 0). Four days (day 4) later, diabetes was confirmed in STZ-injected rats by obtaining a blood sample from the tail vein and by measuring the glucose concentration using a glucose monitor. Only STZ-treated rats with plasma-glucose>260 mg/dl were deemed “diabetic”. The body weight of rats was recorded on daily basis from day 4 to 40.
72 animals were randomly assigned to different groups (12 rats per group).
Compound example 3 was prepared in 10% DMSO in PBS (v/v). […] The treatment was performed on daily basis (twice a day: morning and afternoon) from day 4 until day 40. On the day where behavioral measures are performed, compound or vehicle was given 60 min prior the assessment. On the day where electrophysiological measure was performed, treatment was performed after the assessment.
For positive control regarding analgesia, morphine was dissolved in 0.9% NaCl, and administrated subcutaneously (s.c.) at the dose of 3 mg/kg 45 min prior the tests.
Experimental Plan: • Day 0: induction of diabetes by injection of STZ for all groups except the control group injected with the STZ vehicle • Day 4: glycemia monitoring for all groups and start of the treatment for all groups, except the morphine group. On day 4 rats received only the evening treatment. • Day 10: cold and warm allodynia test for all groups. Treatment is given 60 min prior to the assessment. On that day, the time between the morning and the evening treatment was reduced. • Day 21: Mechanical hyperalgesia test for all groups. Compound or vehicle was given 60 min prior to the assessment. On that day, the time between the morning and the evening treatment was reduced. • Day 22: Termination of rats in the morphine group. • Day 25-26: measurement of sensory nerve conduction velocity (SNCV). On that day, rats only received the evening treatment. • Day 39-40: measurement of sensory nerve conduction velocity (SNCV). On that day, rats only received the evening treatment. • Day 41: skin biopsy from all rats (histology processing and immunostaining of skin biopsy from 7 rats per group take about 4 weeks).
Cold Plate Test on Day 10
The animals were placed into a glass cylinder on a cold platform (0-1° C.). The latency before the first reaction (brisk move of the paw, little leaps) was recorded with a maximal time of 30 s.
Warm Plate Test on Day 10
The animals were placed into a glass cylinder on a hot plate adjusted to 42° C. The latency of the first reaction was recorded (paw lifting or licking, leaps or a jump to escape the heat). Results can be seen in FIG. 8 and table 6.
Paw pressure test is used to assess the hyperalgesia of animals in response to noxious mechanical stimulus. The nociceptive flexion reflex was quantified using the Randall-Selitto paw pressure device (Bioseb, France), which applies a linearly increasing mechanical force to the dorsum of the rat's hind paw. The mechanical nociceptive threshold is defined as the force in grams at which the rat withdraws its paw. The cut off pressure was set to 250 g.
Electrophysiological Measurements (SNCV)
Electrophysiological recordings of SNCV were performed using a Keypoint Electromyograph (EMG) (Medtronic, France). Rats were anaesthetized by intraperitoneal injection of 60 mg/kg ketamine chlorhydrate and 4 mg/kg xylazine. SNCV was recorded in the tail. Electrodes were placed as follows: The recording needle electrode was inserted near the base of the tail and stimulating needle electrode is placed about 50 mm away from the recording electrode towards the extremity of the tail. […]

Question: Which “bladder weight normalized to 100 g of body weight” value ([1]; 60 mg/kg, compared to vehicle treatment, FIG. 11) does the source give for `O=C(O)c1cc(NC(=O)C2(c3ccc(C(F)(F)F)cc3F)CC2)ccc1-c1cnn(C2CCC2)c1` [Example 3, 2-(1-Cyclobutyl-1H-pyrazol-4-yl)-5-[({1-[2-fluoro-4-(trifluoromethyl)phenyl]cyclopropyl}carbonyl)amino]benzoic acid] here?
Answer: Its value is “significantly reduced”.

Question: And the number of micturitions/hour ([1]; preventive single gavage 15 mg & 60 mg/kg, cyclophosphamide 150 mg/kg i.p., FIG. 9)?
Answer: The number of micturitions/hour was “efficacy on reducing”.

Question: And the “AUC during the plateau phase of the micturition (4-10 hours after transfer to metabolic cages)” value ([1]; preventive single gavage, both tested dosages 15 mg & 60 mg/kg, FIG. 10)?
Answer: The value was “significantly reduced”.

Question: What about the “effects in all endpoints (warm/cold/mechanical) of neuropathic pain” value ([2]; STZ diabetic rats, p.o. twice a day from day 4, tests on day 10 and day 21) of the same compound?
Answer: The value was “significant effects”.

Question: What about the “Latency in Cold plate” value ([2]; 3 mg/kg, 3 mg/kg) of the same compound?
Answer: Its value is 14.39 s and 14.46 s and 22.78 s and 15.84 s and 16.87 s and 16.18 s and 21.38 s and 20.52 s and 17.93 s and 15.23 s and 26.66 s and 23.47 s.

Question: What about the “Latency in Warm plate” value ([2]; 3 mg/kg, 3 mg/kg) of the same compound?
Answer: Its value is 19.71 s and 21.41 s and 22.31 s and 20.16 s and 14.49 s and 17.12 s and 22.29 s and 17.89 s (2×) and 23.35 s and 24.72 s and 21.04 s.

Question: And the Paw pressure ([2]; 3 mg/kg, 3 mg/kg)?
Answer: Its Paw pressure is 125 g (3×) and 150 g (2×) and 105 g (4×) and 115 g and 140 g and 100 g.

Question: What about the “Latency in Cold plate” value ([2]; 15 mg/kg, 15 mg/kg) of the same compound?
Answer: The value was 22.94 s and 18.19 s and 23.62 s and 18.66 s and 20.23 s and 19.51 s and 23.02 s and 17.08 s and 24.66 s and 24.25 s and 20.00 s.

Question: And the “Latency in Warm plate” value ([2]; 15 mg/kg, 15 mg/kg)?
Answer: Its value is 21.21 s and 17.56 s and 30.00 s and 23.09 s and 23.47 s and 19.44 s and 28.47 s and 15.88 s and 24.82 s and 20.31 s and 27.35 s.

Question: And the Paw pressure ([2]; 15 mg/kg, 15 mg/kg)?
Answer: The Paw pressure was 100 g and 125 g (2×) and 135 g (2×) and 120 g and 110 g (3×) and 85 g and 105 g.

Question: And the “Latency in Cold plate” value ([2]; 60 mg/kg, 60 mg/kg)?
Answer: The value was 20.21 s and 15.60 s and 17.29 s and 19.84 s and 14.52 s and 13.66 s and 22.28 s and 24.12 s and 21.12 s and 17.48 s and 22.45 s and 16.59 s.

Question: What about the “Latency in Warm plate” value ([2]; 60 mg/kg, 60 mg/kg) of the same compound?
Answer: Its value is 17.88 s and 24.69 s and 21.32 s and 18.69 s and 21.23 s and 28.84 s and 18.84 s and 30.00 s and 23.02 s and 20.56 s and 26.94 s and 20.31 s.

Question: What about the Paw pressure ([2]; 60 mg/kg, 60 mg/kg) of the same compound?
Answer: The Paw pressure was 105 g and 165 g and 95 g and 115 g (3×) and 140 g and 120 g and 110 g (3×) and 190 g.
